Entries after “also recorded” stand apart in the source; their conditions may differ. Like-named read-outs stand apart in the source and are kept apart here. Numbered stars: 1 amine (or outer) side, 2 acyl side, 3 side chain; on linkers, the order of the positions; unused ones are H or OH. Square brackets hold non-standard residues; d marks the D form. Peptide text beside a SMILES is read from it. X1 = NCCCC[C@H](N)CN([C@@H](CCCCN)C(=O)[*:2])[*:1]; Ala(SiMe3) = C[Si](C)(C)C[C@H](N)C(=O)O; X2 = C[Si]1(C)CC(C(=O)[*:2])N([*:1])C1; Dmt = Cc1cc(O)cc(C)c1C[C@H](N)C(=O)O; Tle = CC(C)(C)[C@H](N)C(=O)O
Tests used:
[1] = Plasma stability assay (UPLC/MS); assay type: in vitro ADME; details: 37°C; for half-life at 0.156 mM: rat; for Plasma stability (Half-life): rat plasma, 0.156 mM
Method: Rat plasma was obtained from blood by keeping the translucent phase after centrifugation at 15,000 g over 5 min. Plasma stability assay was carried out by incubating each compound at different incubation times in rat plasma at a final concentration of 0.156 mM. […] Then, 70 μl of a solution containing 10% trichloroacetic acid (TCA) and 0.5% nicotinamine, an internal standard, was added to stop the degradation by proteases. After centrifugation at 15,000 g for 30 min, supernatant was filtered through 0.22-μm filter and analyzed by UPLC/MS (Water H Class Acquity UPLC, mounted with Acquity UPLC BEH C18 column, 1.7 μm, 2.1 × 50 mm and paired to a SQ Detector 2). Compounds 1, 2, and 5 were analyzed using the mass or UV spectrum. Quantification was done by determining the area under the curve (AUC) ratio of each compound over AUC of nicotinamine for each incubation time. Data were plotted into GraphPad Prism 8 and the half-life of each compound was calculated using one-phase decay fit and represented the mean ± SEM of minimum three separate experiments.

Sprague-Dawley rats = test: Body temperature measurement after intrathecal injection; assay type: in vivo; details: rat; for effect on body temperature / temperature drop: 30 μg/kg i.t.; for effect on body temperature: compared to the saline-treated group; for Hypothermia ΔTemp: 30 μg/kg, i.t., change in body temperature from baseline at 60 min; for temperature drop: for up to 60 min
Source text: The experimental procedures in this study were approved by the Animal Care Committee of the Université de Sherbrooke (protocol n°035-18B) and were in accordance with policies and directives of the Canadian Council on Animal Care. Adult male Sprague-Dawley rats, weighing 175–225 g (Charles River laboratories, St-Constant, Québec, Canada), were maintained on a 12-h light/dark cycle with free access to food and water and were housed two per cage on Aspen shavings in a quiet room.
Rats were lightly anesthetized with isoflurane/oxygen (Baxter corporation, Mississauga, ON, Canada; 2 L/min) flow and 25 μl of each compound were injected intrathecally with a 27-G 1/2 needle (BD PrecisionGlide, USA) into the subarachnoid space between vertebrae L5 and L6. Analogs 1–14 were diluted in physiological saline at 5 mg/ml, whereas compounds 15 and 16 were diluted in DMSO. For body temperature measurement, the injected solution of these both compounds contained 6% DMSO at final concentration (30 μg/kg).
Three consecutive days prior to testing, animals were individually acclimatized to manipulations and to a thermistor probe 5 min per day. The day of the test, experiments were always performed in a quiet room and between 8:00 and 12:00 PM. to reduce any variation related to the circadian rhythm. Body temperature was measured using a thermistor probe inserted into the rectum of adult Sprague-Dawley rats. Temperatures were recorded immediately before (baseline) and each 10 min for up to 60 min following intrathecal administration of saline, vehicle (6% DMSO) or NT analogs at 30 μg/kg. Changes in body temperature (Δ body temp) from baseline were determined for each animal. Data are expressed as mean ± SEM of 5 to 20 animals per condition.
Data are expressed as mean ± standard errors of the mean (SEM). All graphs and statistical analysis were performed using GraphPad Prism 8 (GraphPad software, La Jolla, CA, USA). A two-way ANOVA followed by Bonferroni's multiple comparisons test was used to determine significant differences between drug- and vehicle-treated rats at different timepoints post-injection.

hNTS2 [2] = target: T1, hNTS2 (Homo sapiens, UniProt O95665); test: Competitive radioligand binding assay, 125I-[Tyr3]-NT displacement, 1321N1 cell membranes; details: for NTS1/NTS2 selectivity: ratio of Ki hNTS1 to Ki hNTS2; for fold decrease in NTS2 binding affinity: compared to NT(8-13)
T1 sequence (O95665 whole entry): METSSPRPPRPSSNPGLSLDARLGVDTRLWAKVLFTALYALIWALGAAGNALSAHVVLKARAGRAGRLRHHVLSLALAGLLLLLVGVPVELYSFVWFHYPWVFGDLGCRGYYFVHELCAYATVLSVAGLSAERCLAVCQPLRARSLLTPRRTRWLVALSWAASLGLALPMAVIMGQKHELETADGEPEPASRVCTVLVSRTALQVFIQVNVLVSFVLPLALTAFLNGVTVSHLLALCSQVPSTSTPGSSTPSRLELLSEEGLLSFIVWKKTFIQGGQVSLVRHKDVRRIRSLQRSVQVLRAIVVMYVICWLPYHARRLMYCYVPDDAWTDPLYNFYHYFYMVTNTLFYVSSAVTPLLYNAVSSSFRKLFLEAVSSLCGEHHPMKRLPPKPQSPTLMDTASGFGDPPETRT
Method: (§1) All media and additives are from Wisent (St-Bruno, QC). […] After 1 h of incubation at room temperature, the binding reaction mixture was transferred in polyethylenimine-coated 96-well-filter plates (Millipore, Billerica, MA). Reaction was terminated by filtration, and plates were washed three times with 200 μl of ice-cold binding buffer. […] Data were plotted using GraphPad Prism 8 using the One-site—Fit log (IC50) and represent the mean ± SEM of at least three separate experiments performed in triplicate.

hNTS1 [3] = target: T2, hNTS1 (Homo sapiens, UniProt P30989); test: Competitive radioligand binding assay, 125I-[Tyr3]-NT displacement, CHO-K1 cell membranes; details: for fold decrease in NTS1 binding affinity: compared to NT(8-13)
T2 sequence (P30989 whole entry): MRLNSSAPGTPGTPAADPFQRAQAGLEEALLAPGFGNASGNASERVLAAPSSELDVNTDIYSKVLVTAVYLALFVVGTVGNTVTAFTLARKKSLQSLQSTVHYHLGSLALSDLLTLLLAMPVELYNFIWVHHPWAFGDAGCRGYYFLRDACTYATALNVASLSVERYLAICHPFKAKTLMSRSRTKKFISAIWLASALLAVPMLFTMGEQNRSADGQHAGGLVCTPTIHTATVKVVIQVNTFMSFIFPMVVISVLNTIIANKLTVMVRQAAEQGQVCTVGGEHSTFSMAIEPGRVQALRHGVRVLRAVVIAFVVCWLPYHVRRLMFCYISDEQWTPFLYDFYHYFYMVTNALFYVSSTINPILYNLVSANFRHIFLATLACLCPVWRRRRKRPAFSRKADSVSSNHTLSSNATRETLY
Method: as §1

hNTS1 [4] = target: T2, hNTS1; details: Ki values taken from the literature (Figure 1 legend) ref Fanelli et al., 2015; Eiselt et al., 2019; read-out: Binding, Ki hNTS1; cited from earlier work
hNTS2 [5] = target: T1, hNTS2; details: Ki values taken from the literature (Figure 1 legend) ref Fanelli et al., 2015; Eiselt et al., 2019; read-out: Binding, Ki hNTS2; cited from earlier work
[6] = mean ± SEM, at least three experiments, Cheng-Prusoff from IC50, read-out: Binding, Ki hNTS2

Compound | half-life at 0.156 mM ([1]; plasma, incubation up to 24 h) | effect on body temperature (Sprague-Dawley rats) | Hypothermia ΔTemp (Sprague-Dawley rats) | Ki (hNTS2 [2]) | NTS1/NTS2 selectivity (hNTS2 [2]) | Ki (hNTS1 [3]) | further results
CC[C@H](C)[C@H](NC(=O)[C@@H](Cc1c[nH]c2ccccc12)NC(=O)[C@@H]1CCCN1C(=O)[C@H](CCCCN)NC[C@@H](N)CCCCN)C(=O)N[C@@H](C[Si](C)(C)C)C(=O)O [Compound 14, H-Lysψ[CH2NH]Lys-Pro-D-Trp-Ile-TMSAla-OH] (H-[X1]P[dW]I[Ala(SiMe3)]-OH) | > 20 h | long-lasting hypothermia | −1.8 ± 0.2 °C | 3.5 ± 0.6 nM | 16 | 55 ± 3 nM | temperature drop (Sprague-Dawley rats): more than 2 °C; fold increase in binding to NTS1 (hNTS1 [3]; compared to 13 (addition of reduced amine bond)): 65 fold
CC[C@H](C)[C@H](NC(=O)[C@H](Cc1ccc(O)cc1)NC(=O)[C@@H]1CCCN1C(=O)[C@H](CCCCN)NC[C@@H](N)CCCCN)C(=O)N[C@@H](C[Si](C)(C)C)C(=O)O [Compound 4, H-Lysψ[CH2NH]Lys-Pro-Tyr-Ile-TMSAla-OH] (H-[X1]PYI[Ala(SiMe3)]-OH) | 2 ± 0.2 h | long-lasting hypothermia | −2.0 ± 0.10 °C | 0.55 ± 0.1 nM | 4.5 | 2.5 ± 0.2 nM | temperature drop (Sprague-Dawley rats): more than 2 °C; fold decrease (loss) of affinity at NTS1 (hNTS1 [3]; compared to 3): 140 fold
CC[C@H](C)[C@H](NC(=O)[C@H](Cc1ccc(O)cc1)NC(=O)C1C[Si](C)(C)CN1C(=O)[C@H](CCCCN)NC(=O)[C@@H](N)CCCCN)C(=O)N[C@@H](CC(C)C)C(=O)O (stereo partly drawn) [Compound 5, H-Lys-Lys-Sip-Tyr-Ile-Leu-OH] (H-KK[X2]YIL-OH) | – | not effective in reducing the body temperature; also recorded: not effective to induce drop in body temperature | −0.07 ± 0.2 °C | – | – | – | –
CC[C@H](C)[C@H](NC(=O)[C@H](CCCCN)NC(=O)[C@@H]1CCCN1C(=O)[C@H](CCCCN)NC[C@@H](N)CCCCN)C(=O)N[C@@H](CC(C)C)C(=O)O [Compound 10, H-LysΨ[CH2NH]Lys-Pro-Lys-Ile-Leu-OH] (H-[X1]PKIL-OH) | 5 ± 0.2 h | – | – | – | – | – | –
CC[C@H](C)[C@H](NC(=O)[C@@H](Cc1c[nH]c2ccccc12)NC(=O)[C@@H]1CCCN1C(=O)[C@H](CCCCN)NC(=O)[C@@H](N)CCCCN)C(=O)N[C@@H](C[Si](C)(C)C)C(=O)O [Compound 13, H-Lys-Lys-Pro-D-Trp-Ile-TMSAla-OH] (H-KKP[dW]I[Ala(SiMe3)]-OH) | – | – | – | 8.5 ± 2 nM | 423 | – | Plasma stability (Half-life) ([1]; short incubation times): 0.167 ± 0.033 h; half-life at 0.156 mM ([1]; plasma, short incubation times): < 0.167 h; selectivity toward NTS2 (hNTS2 [2]; NTS2 over NTS1, text): > 420 fold
CC[C@H](C)[C@H](NC(=O)[C@H](CCCCN)NC(=O)[C@@H]1CCCN1C(=O)[C@H](CCCCN)NC(=O)[C@@H](N)CCCCN)C(=O)N[C@@H](C[Si](C)(C)C)C(=O)O [Compound 11, H-Lys-Lys-Pro-Lys-Ile-TMSAla-OH] (H-KKPKI[Ala(SiMe3)]-OH) | – | did not induce hypothermia; also recorded: did not cause drop in body temperature | 0.04 ± 0.2 °C | 76 ± 20 nM | 9.3 | 710 ± 100 nM | fold increase in affinity toward NTS2 (hNTS2 [2]; compared to 9): 4 fold; fold increase in affinity toward NTS1 (hNTS1 [3]; compared to 9): 10 fold
CC[C@H](C)[C@H](NC(=O)[C@H](Cc1ccc(O)cc1)NC(=O)C1C[Si](C)(C)CN1C(=O)[C@H](CCCCN)NC[C@@H](N)CCCCN)C(=O)N[C@@H](C[Si](C)(C)C)C(=O)O (stereo partly drawn) [Compound 8, H-LysΨ[CH2NH]Lys-Sip-Tyr-Ile-TMSAla-OH] | > 20 h | – | – | – | – | – | –
CC[C@H](C)[C@H](NC(=O)[C@H](Cc1ccc(O)cc1)NC(=O)C1C[Si](C)(C)CN1C(=O)[C@H](CCCCN)NC(=O)[C@@H](N)CCCCN)C(=O)N[C@@H](C[Si](C)(C)C)C(=O)O (stereo partly drawn) [Compound 7, H-Lys-Lys-Sip-Tyr-Ile-TMSAla-OH] (H-KK[X2]YI[Ala(SiMe3)]-OH) | – | not effective in reducing the body temperature; also recorded: not effective to induce drop in body temperature | −0.30 ± 0.6 °C | 16 ± 4 nM | 3.4 | 55 ± 5 nM | fold decrease in NTS2 binding affinity (hNTS2 [2]): 6 fold; fold decrease in NTS1 binding affinity (hNTS1 [3]): 35 fold
CC[C@H](C)[C@H](NC(=O)[C@H](Cc1ccc(O)cc1)NC(=O)[C@@H]1CCCN1C(=O)[C@H](CCCNC(=N)N)NC(=O)[C@@H](N)CCCNC(=N)N)C(=O)N[C@@H](CC(C)C)C(=O)O [NT(8-13), H-Arg-Arg-Pro-Tyr-Ile-Leu-OH, reference compound] | – | – | – | – | – | – | half-life at 0.156 mM ([1]; short incubation times): 0.0167 ± 0.00167 h
Cc1cc(O)cc(C)c1C[C@H](NC(=O)[C@@H]1CCCN1C(=O)[C@H](CCCCN)NC(=O)[C@@H](N)CCCCN)C(=O)N[C@H](C(=O)N[C@@H](CC(C)C)C(=O)O)C(C)(C)C [Compound 15, H-Lys-Lys-Pro-Dmt-Tle-Leu-OH] (H-KKP[Dmt][Tle]L-OH) | – | not effective in reducing the body temperature; also recorded: not effective to induce drop in body temperature | 0.14 ± 0.2 °C | – | 24 | – | Ki (hNTS1 [4]): 57 ± 6 nM; Ki (hNTS2 [5]): 2.4 ± 1 nM
CC[C@H](C)[C@H](NC(=O)[C@H](Cc1ccc(O)cc1)NC(=O)[C@@H]1CCCN1C(=O)[C@H](CCCCN)NC[C@@H](N)CCCCN)C(=O)N[C@@H](CC(C)C)C(=O)O [Compound 2, H-LysΨ[CH2NH]Lys-Pro-Tyr-Ile-Leu-OH] (H-[X1]PYIL-OH) | – | – | – | – | 6 | 2 ± 0.8 nM | Plasma stability (Half-life) ([1]; short incubation times): 0.14 ± 0.0333 h; half-life at 0.156 mM ([1]; plasma, short incubation times): < 0.167 h; Ki (hNTS2 [2]; [6]): 0.31 ± 0.08 nM
CC[C@H](C)[C@H](NC(=O)[C@H](Cc1ccc(O)cc1)NC(=O)[C@@H]1CCCN1C(=O)[C@H](CCCCN)NC(=O)[C@@H](N)CCCCN)C(=O)N[C@@H](CC(C)C)C(=O)O [Compound 1, H-Lys-Lys-Pro-Tyr-Ile-Leu-OH] | – | not effective in reducing the body temperature; also recorded: not effective to induce drop in body temperature | 0.27 ±0.2 °C | 1.1 ± 0.2 nM | – | – | half-life at 0.156 mM ([1]; short incubation times): 0.0267 ± 0.005 h
H-KKPKIL-OH [Compound 9, H-Lys-Lys-Pro-Lys-Ile-Leu-OH] | – | did not induce hypothermia; also recorded: did not cause drop in body temperature | 0.32 ± 0.2 °C | – | 25 | – | fold decrease in NTS2 binding affinity (hNTS2 [2]): > 110 fold; Ki (hNTS2 [2]; [6]): 310 ± 100 nM; fold decrease in NTS1 binding affinity (hNTS1 [3]): more than 5,000 fold
CC[C@H](C)[C@H](NC(=O)[C@H](Cc1ccc(O)cc1)NC(=O)C1C[Si](C)(C)CN1C(=O)[C@H](CCCCN)NC[C@@H](N)CCCCN)C(=O)N[C@@H](CC(C)C)C(=O)O (stereo partly drawn) [Compound 6, H-Lysψ[CH2NH]Lys-Sip-Tyr-Ile-Leu-OH] | 22 ± 2 h | slight decrease in core body temperature; also recorded: hypothermic response | −2.2 ± 0.3 °C | 130 ± 30 nM | 2.3 | 300 ± 50 nM | fold decrease in NTS2 binding affinity (hNTS2 [2]): ~50 fold; fold decrease in NTS1 binding affinity (hNTS1 [3]): 200 fold

Reference: PMC7291367, “Insightful Backbone Modifications Preventing Proteolytic Degradation of Neurotensin Analogs Improve NTS1-Induced Protective Hypothermia” (Frontiers in Chemistry, 2020)
